Test results as given in ChEMBL document CHEMBL5036374, “2-Oxooxazolidine-5-carboxamides as Nav1.8 Inhibitors for Treating Pain Disorders, Cough Disorders, and Acute and Chronic Itch Disorders” (ACS Med Chem Lett, 2022).

Test: Inhibition of human Nav1.8 expressed in HEK293 cells assessed as sodium current flow at holding potential of -90mV by Whole cell-automated patch clamp assay
Format: cell-based

Compound	IC50 [nM]
O=C1NC[C@@H](C(=O)NC(c2ccc(Cl)cc2)c2ccc(F)c(Cl)c2)O1 (stereo partly specified)	0.9
O=C1NC[C@@H](C(=O)NC(c2ccc(OC(F)(F)F)c(Cl)c2)c2cnn(C(F)(F)F)c2)O1 (stereo partly specified)	1.2
Cc1cc(C(NC(=O)[C@@H]2CNC(=O)O2)c2ccc(Cl)cc2)ccc1Cl (stereo partly specified)	0.6

Further compounds by falling IC50, results first:

IC50 [nM]	Compound
0.7	O=C1NC[C@@H](C(=O)NC(c2ccc(F)c(Cl)c2)c2ccc(F)c(Cl)c2)O1
0.6	O=C1NC[C@@H](C(=O)NC(c2ccc(Cl)cc2)c2ccc(Cl)c(C(F)(F)F)n2)O1 (stereo partly specified)
0.4	O=C1NC[C@@H](C(=O)NC(c2ccc(Cl)cc2)c2ccc(Cl)c(C(F)(F)F)c2)O1 (stereo partly specified)
